The values below come from US20040067565A1, “Selective functionalization of hydrocarbons with isolated oxygenases and mediator based regeneration” (priority 2002, published 2004).

For this test, the system named is 2-hydroxybiphenyl-3-monooxygenase (HbpA, E.C. 1.14.13.44). Kind of test: Residual HbpA activity while incubation with [Cp*Rh(bpy)(H2O)]2+. In kind it is biochemical. On the procedure: HbpA-activities were determined by UV-spectroscopy according to literature methods by supplementing the experiment buffer with 0.1 mM NADH and observation of NADH-depletion at 340 nm for 1 minute, afterwards 2 mM of 2-hydroxybiphenyl were added and NADH depletion was measured for 1 minute. HbpA activity was determined as difference of both rates.
In a first experiment 0.11 U*ml^−1 HbpA of a partially enriched crude extract from recombinant E. coli overexpressing HbpA was incubated at 30° C. with 0, 0.02, 0.04, and 0.1 mM [Cp*Rh(bpy)(H2O)]^2+. In a second experiment c[Cp*Rh(bpy)(H2O)]^2+) was maintained at 0.02 mM whereas the HbpA content varied form 0.22 U*ml^−1 to 1.52 U*ml^−1.

Where [1] appears, read: [Cp*Rh(bpy)] 0.02 mM, [HbpA] 0.22 U/ml.
Setting [2] is: [Cp*Rh(bpy)] 0.02 mM, [HbpA] 0.44 U/ml.
The mark [3] stands for this setting: [Cp*Rh(bpy)] 0.02 mM, [HbpA] 1.52 U/ml.

In the case of `Cc1c(C)c(C)[c-](C)c1C.O.[Rh+3].c1ccc(-c2ccccn2)nc1` [[Cp*Rh(bpy)(H2O)]^2+], the “effect of incubation on HbpA enzymatic activity” value is “complete loss of enzymatic activity”. Besides, under setting [1], the “HbpA activity at t = 60 min” value is recorded as 16% and the t25% amounted to 39 min. Moreover, under setting [2], the “HbpA activity at t = 60 min” value came to 42% and the t25% worked out at 173 min. Also, under setting [3], the “HbpA activity at t = 60 min” value came to 68% and the t25% was greater than 1260 min. For the same molecule, where the note is “[Hbpa] 0.11 U/ml, [Cp*Rh(bpy)] 0.02 mM, 30 °C”, the t25% was determined as 70 min. The molecule also gave a t25% ([Hbpa] 0.11 U/ml, [Cp*Rh(bpy)] 0.04 mM, 30 °C) of 12 min. The t25% ([Hbpa] 0.11 U/ml, [Cp*Rh(bpy)] 0.1 mM, 30 °C) is less than 5 min.
